Laboratory results taken from ChEMBL document CHEMBL5465560, “Selectivity Literature for EUbOPEN Chemogenomic Library” (2024).

Experiments:
[1] = target: T1, Tyrosine-protein kinase ABL1 (Homo sapiens, UniProt P00519); experiment: Selectivity interaction (KinomeScan (DiscoverX)) EUB0001049a ABL1; conditions: at 1 µM
[2] = target: Serine/threonine-protein kinase PAK 4 (Homo sapiens, UniProt O96013); experiment: Selectivity interaction (KinomeScan (DiscoverX)) EUB0001049a PAK4; conditions: at 1 µM
Sequence of Serine/threonine-protein kinase PAK 4 (O96013 whole entry, looked up): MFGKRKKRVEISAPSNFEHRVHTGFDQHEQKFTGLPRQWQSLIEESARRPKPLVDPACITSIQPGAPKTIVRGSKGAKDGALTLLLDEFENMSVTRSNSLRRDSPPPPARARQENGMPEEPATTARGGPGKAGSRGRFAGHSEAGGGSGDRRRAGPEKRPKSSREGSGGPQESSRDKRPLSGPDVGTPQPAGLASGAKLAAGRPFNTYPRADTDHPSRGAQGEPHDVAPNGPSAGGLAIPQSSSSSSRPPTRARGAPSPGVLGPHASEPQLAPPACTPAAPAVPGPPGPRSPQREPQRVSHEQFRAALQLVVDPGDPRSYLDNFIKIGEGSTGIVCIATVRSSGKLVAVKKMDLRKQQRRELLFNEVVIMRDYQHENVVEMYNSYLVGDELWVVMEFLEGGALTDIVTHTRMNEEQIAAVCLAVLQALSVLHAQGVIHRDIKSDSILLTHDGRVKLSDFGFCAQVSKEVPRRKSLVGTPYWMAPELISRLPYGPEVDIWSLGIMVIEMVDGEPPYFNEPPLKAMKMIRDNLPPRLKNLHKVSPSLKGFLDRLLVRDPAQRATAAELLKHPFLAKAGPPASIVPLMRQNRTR

[3] = target: T2, Membrane-associated tyrosine- and threonine-specific cdc2-inhibitory kinase (Homo sapiens) (UniProt Q99640); experiment: Selectivity interaction (KinomeScan (DiscoverX)) EUB0001049a PKMYT1; conditions: at 1 µM
T2 sequence (whole entry): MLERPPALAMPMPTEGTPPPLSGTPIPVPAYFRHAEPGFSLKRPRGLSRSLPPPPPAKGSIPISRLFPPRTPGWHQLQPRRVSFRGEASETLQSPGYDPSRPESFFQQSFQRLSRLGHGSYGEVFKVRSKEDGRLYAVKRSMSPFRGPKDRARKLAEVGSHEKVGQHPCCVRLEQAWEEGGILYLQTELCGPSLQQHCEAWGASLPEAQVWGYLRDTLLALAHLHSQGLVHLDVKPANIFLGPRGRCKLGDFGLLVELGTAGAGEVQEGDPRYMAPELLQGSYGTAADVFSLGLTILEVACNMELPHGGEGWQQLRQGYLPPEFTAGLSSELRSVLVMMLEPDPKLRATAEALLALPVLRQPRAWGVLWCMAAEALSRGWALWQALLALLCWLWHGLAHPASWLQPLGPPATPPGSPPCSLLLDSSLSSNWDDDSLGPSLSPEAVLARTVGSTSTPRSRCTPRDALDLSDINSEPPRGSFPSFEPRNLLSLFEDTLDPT

[4] = target: Insulin-like growth factor 1 receptor (Homo sapiens, UniProt P08069); experiment: Selectivity interaction (Millipore kinase profiler) EUB0000124b IGF1R; conditions: at 10 µM
[5] = target: Dual specificity mitogen-activated protein kinase kinase 2 (Homo sapiens) (UniProt P36507); experiment: Selectivity interaction (KinomeScan (DiscoverX)) EUB0000229b MAP2K2; conditions: at 10 µM
Sequence of Dual specificity mitogen-activated protein kinase kinase 2 (Homo sapiens) (P36507 whole entry): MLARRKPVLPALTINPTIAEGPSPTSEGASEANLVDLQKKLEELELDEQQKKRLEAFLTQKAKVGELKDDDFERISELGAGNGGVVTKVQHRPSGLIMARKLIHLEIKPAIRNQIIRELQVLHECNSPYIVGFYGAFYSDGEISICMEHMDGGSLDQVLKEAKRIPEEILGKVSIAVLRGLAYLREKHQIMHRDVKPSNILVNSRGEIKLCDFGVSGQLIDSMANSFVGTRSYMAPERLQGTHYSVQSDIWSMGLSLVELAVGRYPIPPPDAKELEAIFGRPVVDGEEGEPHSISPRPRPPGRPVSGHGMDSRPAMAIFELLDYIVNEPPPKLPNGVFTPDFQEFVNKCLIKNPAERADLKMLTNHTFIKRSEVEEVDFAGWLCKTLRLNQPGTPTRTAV

[6] = target: Mitogen-activated protein kinase 3 (Homo sapiens, UniProt P27361); experiment: Selectivity interaction (KinomeScan (DiscoverX)) EUB0001079a MAPK3; conditions: at 1 µM
Sequence of Mitogen-activated protein kinase 3 (P27361 whole entry): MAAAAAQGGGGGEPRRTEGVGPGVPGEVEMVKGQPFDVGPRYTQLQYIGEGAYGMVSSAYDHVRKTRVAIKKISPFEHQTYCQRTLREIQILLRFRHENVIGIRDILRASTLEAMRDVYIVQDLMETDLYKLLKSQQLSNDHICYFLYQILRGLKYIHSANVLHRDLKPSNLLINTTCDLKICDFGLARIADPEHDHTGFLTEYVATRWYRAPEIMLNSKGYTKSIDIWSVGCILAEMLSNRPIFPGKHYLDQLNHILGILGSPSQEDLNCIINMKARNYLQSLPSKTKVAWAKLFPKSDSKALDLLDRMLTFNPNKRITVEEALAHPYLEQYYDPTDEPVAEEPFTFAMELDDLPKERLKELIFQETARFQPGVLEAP

[7] = target: Bromodomain-containing protein 3 (Homo sapiens) (UniProt Q15059); experiment: Selectivity interaction (Human bromodomain panel (DSF assay)) EUB0000233b BRD3
Sequence of Bromodomain-containing protein 3 (Homo sapiens) (Q15059 2-726 limits assumed): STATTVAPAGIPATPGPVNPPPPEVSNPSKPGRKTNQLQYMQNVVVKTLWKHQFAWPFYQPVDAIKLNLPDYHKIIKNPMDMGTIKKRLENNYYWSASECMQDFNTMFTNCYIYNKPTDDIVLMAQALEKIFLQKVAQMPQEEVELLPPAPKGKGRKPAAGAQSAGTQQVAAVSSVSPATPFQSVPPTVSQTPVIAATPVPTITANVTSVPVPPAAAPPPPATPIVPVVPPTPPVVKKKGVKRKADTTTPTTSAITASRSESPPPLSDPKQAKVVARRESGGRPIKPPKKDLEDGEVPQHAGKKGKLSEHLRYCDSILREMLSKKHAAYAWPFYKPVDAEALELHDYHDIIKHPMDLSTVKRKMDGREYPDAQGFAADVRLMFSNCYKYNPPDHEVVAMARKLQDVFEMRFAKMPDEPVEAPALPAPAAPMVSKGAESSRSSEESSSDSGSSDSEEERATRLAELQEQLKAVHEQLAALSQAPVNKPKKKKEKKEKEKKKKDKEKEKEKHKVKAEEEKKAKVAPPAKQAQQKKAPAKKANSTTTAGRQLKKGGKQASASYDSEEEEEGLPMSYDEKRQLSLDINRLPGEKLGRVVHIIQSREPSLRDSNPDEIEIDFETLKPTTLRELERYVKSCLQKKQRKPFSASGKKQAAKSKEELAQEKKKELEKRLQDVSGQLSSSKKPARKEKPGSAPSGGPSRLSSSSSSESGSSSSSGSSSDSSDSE

[8] = target: Serine/threonine-protein kinase tousled-like 2 (Homo sapiens) (UniProt Q86UE8); experiment: Selectivity interaction (ActivX KiNativ screen (kinase selectivity in THP-1 cell lysates)) EUB0000639a TLK2; assay type: subcellular; conditions: lysate, at 0.01 µM
Sequence of Serine/threonine-protein kinase tousled-like 2 (Homo sapiens) (Q86UE8 whole entry, looked up): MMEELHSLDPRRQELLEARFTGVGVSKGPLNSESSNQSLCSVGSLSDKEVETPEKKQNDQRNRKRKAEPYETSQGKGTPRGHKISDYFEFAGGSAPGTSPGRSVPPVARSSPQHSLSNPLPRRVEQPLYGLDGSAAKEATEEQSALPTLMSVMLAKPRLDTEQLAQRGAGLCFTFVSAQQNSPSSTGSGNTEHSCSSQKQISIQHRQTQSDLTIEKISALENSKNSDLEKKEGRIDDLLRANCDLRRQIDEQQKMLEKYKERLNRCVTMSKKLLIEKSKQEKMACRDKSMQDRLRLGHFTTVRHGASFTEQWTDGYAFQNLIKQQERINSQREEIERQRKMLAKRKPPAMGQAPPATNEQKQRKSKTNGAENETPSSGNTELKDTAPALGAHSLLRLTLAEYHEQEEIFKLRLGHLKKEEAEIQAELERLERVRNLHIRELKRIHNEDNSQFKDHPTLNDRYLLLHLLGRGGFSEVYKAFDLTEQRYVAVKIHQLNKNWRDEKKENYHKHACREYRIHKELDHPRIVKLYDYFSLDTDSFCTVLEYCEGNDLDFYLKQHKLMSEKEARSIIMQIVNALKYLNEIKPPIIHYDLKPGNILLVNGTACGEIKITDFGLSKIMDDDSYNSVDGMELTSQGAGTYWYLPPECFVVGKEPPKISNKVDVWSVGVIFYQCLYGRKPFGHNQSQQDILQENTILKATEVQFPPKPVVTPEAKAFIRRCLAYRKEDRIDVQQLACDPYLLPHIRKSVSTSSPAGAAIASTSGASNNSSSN

[9] = target: T1, Tyrosine-protein kinase ABL1; experiment: Selectivity interaction (Kinase panel (enzymatic assay)) EUB0000595a ABL1
[10] = target: Dual specificity protein kinase CLK1 (Homo sapiens, UniProt P49759); experiment: Selectivity interaction (KinomeScan (DiscoverX)) EUB0000092b CLK1; conditions: at 10 µM
Sequence of Dual specificity protein kinase CLK1 (P49759 whole entry, looked up): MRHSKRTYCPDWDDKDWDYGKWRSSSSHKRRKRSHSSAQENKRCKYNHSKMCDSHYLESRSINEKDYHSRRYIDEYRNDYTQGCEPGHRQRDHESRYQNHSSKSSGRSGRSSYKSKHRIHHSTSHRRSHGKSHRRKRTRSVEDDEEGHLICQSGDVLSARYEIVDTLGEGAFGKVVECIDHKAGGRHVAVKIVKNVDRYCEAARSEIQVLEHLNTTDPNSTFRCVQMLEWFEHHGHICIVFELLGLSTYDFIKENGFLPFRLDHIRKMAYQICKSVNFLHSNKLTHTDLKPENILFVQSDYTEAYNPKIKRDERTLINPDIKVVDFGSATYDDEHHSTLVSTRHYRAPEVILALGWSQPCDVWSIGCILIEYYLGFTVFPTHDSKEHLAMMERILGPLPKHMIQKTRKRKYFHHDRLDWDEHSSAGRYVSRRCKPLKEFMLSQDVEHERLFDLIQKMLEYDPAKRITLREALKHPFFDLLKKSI

[11] = target: T3, cAMP-dependent protein kinase catalytic subunit PRKX (Homo sapiens) (UniProt P51817); experiment: Selectivity interaction (Kinase screening (Nanosyn)) EUB0000604a PRKX
T3 sequence (whole entry): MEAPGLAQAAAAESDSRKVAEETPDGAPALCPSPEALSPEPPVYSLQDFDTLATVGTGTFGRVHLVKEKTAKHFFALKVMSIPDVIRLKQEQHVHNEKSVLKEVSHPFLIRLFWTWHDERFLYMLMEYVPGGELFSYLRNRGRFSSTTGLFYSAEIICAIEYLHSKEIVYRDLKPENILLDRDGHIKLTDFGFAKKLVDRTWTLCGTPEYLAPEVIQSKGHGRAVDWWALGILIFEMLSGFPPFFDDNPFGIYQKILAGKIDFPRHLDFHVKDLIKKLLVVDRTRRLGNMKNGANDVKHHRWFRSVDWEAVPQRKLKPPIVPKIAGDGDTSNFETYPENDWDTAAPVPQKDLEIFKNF

[12] = target: RAC-alpha serine/threonine-protein kinase (Homo sapiens, UniProt P31749); experiment: Selectivity interaction (KinomeScan (DiscoverX)) EUB0000618a AKT1; conditions: at 10 µM
[13] = target: Serine/threonine-protein kinase Chk2 (Homo sapiens) (UniProt O96017); experiment: Selectivity interaction (KinomeScan (DiscoverX)) EUB0001619a CHEK2; conditions: at 1 µM
Sequence of Serine/threonine-protein kinase Chk2 (Homo sapiens) (O96017 whole entry, canonical isoform): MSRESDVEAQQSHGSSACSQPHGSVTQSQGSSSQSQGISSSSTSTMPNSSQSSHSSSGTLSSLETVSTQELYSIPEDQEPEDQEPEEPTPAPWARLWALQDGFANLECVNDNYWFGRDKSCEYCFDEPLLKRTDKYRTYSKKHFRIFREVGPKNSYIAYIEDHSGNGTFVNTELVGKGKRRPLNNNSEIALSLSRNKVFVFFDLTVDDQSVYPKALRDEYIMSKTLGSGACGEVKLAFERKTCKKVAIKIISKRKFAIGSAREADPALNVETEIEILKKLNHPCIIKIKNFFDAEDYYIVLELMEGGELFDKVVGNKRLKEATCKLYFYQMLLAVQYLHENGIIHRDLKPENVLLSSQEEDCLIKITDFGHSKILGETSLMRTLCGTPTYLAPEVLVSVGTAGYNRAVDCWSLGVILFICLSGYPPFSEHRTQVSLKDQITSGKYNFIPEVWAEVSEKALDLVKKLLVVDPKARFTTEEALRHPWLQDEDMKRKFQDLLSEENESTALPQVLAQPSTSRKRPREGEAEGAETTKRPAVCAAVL

[14] = target: Phosphatidylinositol 4,5-bisphosphate 3-kinase catalytic subunit gamma isoform (Homo sapiens) (UniProt P48736); experiment: Selectivity interaction (KinomeScan (DiscoverX)) EUB0000607a PIK3CG; conditions: at 10 µM
[15] = target: T4, Serine/threonine-protein kinase Nek9 (Homo sapiens) (UniProt Q8TD19); experiment: Selectivity interaction (Kinase panel (Z-LYTE Assay)) EUB0001632a NEK9; conditions: at 10 µM
T4 sequence (whole entry): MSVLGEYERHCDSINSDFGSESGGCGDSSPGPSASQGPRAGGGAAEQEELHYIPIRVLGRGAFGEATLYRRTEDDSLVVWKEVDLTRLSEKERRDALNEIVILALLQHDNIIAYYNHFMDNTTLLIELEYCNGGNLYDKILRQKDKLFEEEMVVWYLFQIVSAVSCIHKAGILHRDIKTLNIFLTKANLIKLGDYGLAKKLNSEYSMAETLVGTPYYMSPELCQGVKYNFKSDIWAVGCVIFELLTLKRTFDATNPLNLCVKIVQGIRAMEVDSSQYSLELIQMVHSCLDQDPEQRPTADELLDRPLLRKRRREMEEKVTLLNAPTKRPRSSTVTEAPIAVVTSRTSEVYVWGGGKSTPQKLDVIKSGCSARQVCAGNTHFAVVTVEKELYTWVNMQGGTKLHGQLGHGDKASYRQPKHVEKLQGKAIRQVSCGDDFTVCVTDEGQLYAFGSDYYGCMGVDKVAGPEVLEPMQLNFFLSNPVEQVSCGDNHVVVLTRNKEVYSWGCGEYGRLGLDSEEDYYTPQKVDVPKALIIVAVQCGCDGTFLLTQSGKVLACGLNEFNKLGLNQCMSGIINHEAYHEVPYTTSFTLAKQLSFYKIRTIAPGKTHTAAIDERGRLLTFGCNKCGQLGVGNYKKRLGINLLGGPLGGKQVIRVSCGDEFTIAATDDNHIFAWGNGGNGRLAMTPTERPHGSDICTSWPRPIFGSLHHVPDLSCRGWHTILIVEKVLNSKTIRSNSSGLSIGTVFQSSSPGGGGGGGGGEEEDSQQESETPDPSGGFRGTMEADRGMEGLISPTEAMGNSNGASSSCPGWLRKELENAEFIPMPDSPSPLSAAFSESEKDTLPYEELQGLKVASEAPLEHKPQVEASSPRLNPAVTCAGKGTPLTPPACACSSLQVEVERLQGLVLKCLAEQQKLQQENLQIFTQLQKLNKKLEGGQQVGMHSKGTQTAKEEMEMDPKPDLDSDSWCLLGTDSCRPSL

[16] = target: AP2-associated protein kinase 1 (Homo sapiens, UniProt Q2M2I8); experiment: Selectivity interaction (LanthaScreen Eu Kinase Binding Assay) EUB0001632a AAK1; conditions: at 10 µM

T1 sequence (P00519 whole entry): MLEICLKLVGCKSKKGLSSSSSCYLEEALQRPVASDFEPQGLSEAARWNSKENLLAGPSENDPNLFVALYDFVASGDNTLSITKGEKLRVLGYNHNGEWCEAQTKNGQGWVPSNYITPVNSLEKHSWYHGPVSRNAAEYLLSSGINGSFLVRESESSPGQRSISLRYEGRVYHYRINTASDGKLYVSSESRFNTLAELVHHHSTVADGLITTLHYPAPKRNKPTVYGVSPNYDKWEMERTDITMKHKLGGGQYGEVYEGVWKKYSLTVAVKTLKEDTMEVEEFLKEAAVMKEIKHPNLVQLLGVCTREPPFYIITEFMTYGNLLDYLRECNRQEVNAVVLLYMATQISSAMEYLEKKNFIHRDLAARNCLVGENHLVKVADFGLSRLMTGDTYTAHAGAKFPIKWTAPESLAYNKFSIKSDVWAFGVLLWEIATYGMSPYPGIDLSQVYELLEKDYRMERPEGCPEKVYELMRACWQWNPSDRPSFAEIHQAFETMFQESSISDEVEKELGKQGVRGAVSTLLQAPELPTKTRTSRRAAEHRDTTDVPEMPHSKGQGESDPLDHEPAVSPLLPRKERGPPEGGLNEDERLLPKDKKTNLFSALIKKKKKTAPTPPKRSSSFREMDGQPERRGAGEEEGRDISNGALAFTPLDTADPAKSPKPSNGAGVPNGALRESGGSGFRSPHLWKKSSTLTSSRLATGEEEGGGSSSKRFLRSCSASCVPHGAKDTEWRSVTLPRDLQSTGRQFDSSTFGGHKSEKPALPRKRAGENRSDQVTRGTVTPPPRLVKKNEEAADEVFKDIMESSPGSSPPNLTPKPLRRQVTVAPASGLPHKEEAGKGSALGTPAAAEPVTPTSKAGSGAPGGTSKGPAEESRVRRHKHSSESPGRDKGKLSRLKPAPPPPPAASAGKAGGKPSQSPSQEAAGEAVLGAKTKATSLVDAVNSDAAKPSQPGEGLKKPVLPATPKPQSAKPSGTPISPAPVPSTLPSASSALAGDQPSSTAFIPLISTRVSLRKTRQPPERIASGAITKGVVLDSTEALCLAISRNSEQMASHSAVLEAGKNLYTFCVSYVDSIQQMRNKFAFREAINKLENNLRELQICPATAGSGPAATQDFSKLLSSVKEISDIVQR

SMILES: COc1cc(Nc2nc(C)cc(-c3cnn4nc(OC)ccc34)n2)cc(C(F)(F)F)c1
- % of control [1]: 84%
- % of control [2]: 88%
- % of control [3]: 97%

SMILES: CC(=O)Nc1cccc(-n2c(=O)n(C3CC3)c(=O)c3c(Nc4ccc(I)cc4F)n(C)c(=O)c(C)c32)c1
- % of control [4]: 95%

SMILES: COc1cc(N(C)c2ccnc3ccc(C(F)(F)F)cc23)cc(OC)c1OC
- % binding [5]: 68%

SMILES: Nc1cnc(N2CCc3cc(S(=O)(=O)Nc4c(F)cc(Cl)cc4F)cc(N4CCCC4=O)c32)nc1 [TP-020n]
- % of control [6]: 91%

SMILES: CN(C)CCCOc1ccc(-c2cc(NCCCn3cccn3)nc(S(C)(=O)=O)n2)cc1
- dTM [7]: < 2 K

SMILES: CC[C@@H]1[C@H](F)C(=O)N[C@@H]1COc1nccc2cc(C(N)=O)c(OC)cc12 [ZIMLOVISERTIB]
- % of inhibition [8]: 0.7%

SMILES: COCC(=O)NC/C=C/c1ccc2ncnc(Nc3ccc(Oc4ccc(C)nc4)c(C)c3)c2c1 [CP-724714]
- IC50 [9]: > 10 µM

SMILES: CCC(=O)N1CCN(c2ccc(-n3c(=O)ccc4cnc5ccc(-c6cnc7ccccc7c6)cc5c43)cc2C(F)(F)F)CC1
- % of control [10]: 49%

SMILES: Cc1cnc(Nc2ccc(F)cc2Cl)nc1-c1c[nH]c(C(=O)N[C@H](CO)c2cccc(Cl)c2)c1
- % of inhibition [11]: 3%

SMILES: O[C@H]1CC[C@H](Nc2ncc3nc(Nc4c(F)cc(F)cc4F)n([C@H]4CCOC4)c3n2)CC1
- % of control [12]: 72%

SMILES: N#Cc1cccc(-c2c[nH]c3ncnc(N4CCOCC4)c23)c1
- % of control [13]: 100%

SMILES: CNC(=O)Nc1ccc(-c2nc(N3CC4CCC(C3)O4)c3cnn(C4CCC5(CC4)OCCO5)c3n2)cc1
- % of control [14]: 72%

SMILES: Cn1cc(-n2cnc3c(NCc4nc5cc(Cl)c(Cl)cc5[nH]4)nc(N4CCOCC4)nc32)cn1
- % of control [15]: -0.159%
- % of inhibition [16]: 4.16%
